Measurements reported in ChEMBL document CHEMBL1201862, “PubChem BioAssay data set” (2004).
Where “and” joins values, the source holds several entries; their conditions need not be identical. Identical values can stand only once.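 Where inhibition never reached the appropriate level, the endpoint shown equals the highest concentration tested. Otherwise, values were interpolated linearly from a five-concentration, 48-hour dose response in 96-well plates. GI50 marks 50% less growth.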 Calls of active or inactive are those of the source. Rule as the data show it: active = GI50 up to about 1.1 µM and inactive = higher.

Key:
Test in all cases: growth of human tumour cells (NCI), 48 h
NCI-H460 = system: NCI-H460
OVCAR-8 = system: OVCAR-8
LOX IMVI = system: LOX IMVI
BT-549 = system: BT-549
HCT-116 = system: HCT-116
M14 = system: M14
A498 = system: A498
EKVX = system: EKVX
NCI-H522 = system: NCI-H522
COLO 205 = system: COLO 205
RXF 393 = system: RXF 393
ACHN = system: ACHN
OVCAR-5 = system: OVCAR-5
KM12 = system: KM12
Hs-578T = system: Hs-578T
SF-295 = system: SF-295
TK-10 = system: TK-10
UACC-62 = system: UACC-62
NCI-H226 = system: NCI-H226
SR = system: SR

Row | SMILES | GI50 (NCI-H460) | GI50 (OVCAR-8) | GI50 (LOX IMVI) | GI50 (BT-549) | GI50 (HCT-116) | GI50 (M14) | GI50 (A498) | GI50 (EKVX) | GI50 (NCI-H522) | GI50 (COLO 205) | GI50 (RXF 393) | GI50 (ACHN) | GI50 (OVCAR-5) | GI50 (KM12) | GI50 (Hs-578T) | GI50 (SF-295) | GI50 (TK-10) | GI50 (UACC-62) | GI50 (NCI-H226) | GI50 (SR)
1 | N=C(N)NCCNC(=N)N | > 100 µM (inactive) | > 100 µM (inactive) | > 100 µM (inactive) | > 100 µM (inactive) | > 100 µM (inactive) | > 100 µM (inactive) | > 100 µM (inactive) | > 100 µM (inactive) | > 100 µM (inactive) | > 100 µM (inactive) | > 100 µM (inactive) | > 100 µM (inactive) | > 100 µM (inactive) | > 100 µM (inactive) | > 100 µM (inactive) | > 100 µM (inactive) | > 100 µM (inactive) | > 100 µM (inactive) | – | –
2 | CN(C)CCNc1ccc2ncn3c4ccc(O)cc4c(=O)c1c23 | 0.0871 µM (active) | 0.646 µM (active) | 0.543 µM (active) | 14.2 µM (inactive) | 0.272 µM (active) | 1.63 µM (inactive) | 0.745 µM (active) | 5.22 µM (inactive) | 0.409 µM (active) | 0.698 µM (active) | 0.617 µM (active) | 0.158 µM (active) | 3.38 µM (inactive) | 1.95 µM (inactive) | 1.18 µM (inactive) | 1.39 µM (inactive) | 2.66 µM (inactive) | 3.44 µM (inactive) | 0.476 µM (active) | –
3 | CC(C)=NN/C(=N\c1ccc(Cl)cc1)NS(=O)(=O)c1ccc(C)cc1 | 57.8 µM (inactive) | > 100 µM (inactive) | 87.7 µM (inactive) | > 100 µM (inactive) | 76.4 µM (inactive) | > 100 µM (inactive) | 33 µM (inactive) | 52.6 µM (inactive) | 56.8 µM (inactive) | > 100 µM (inactive) | – | 40.5 µM (inactive) | > 100 µM (inactive) | 85.7 µM (inactive) | > 100 µM (inactive) | 35.2 µM (inactive) | 50.8 µM (inactive) | 49 µM (inactive) | > 100 µM (inactive) | –
4 | O=C(N/N=C/c1ccco1)c1cc(I)cc(I)c1O | – | 19.4 µM (inactive) | 16.4 µM (inactive) | > 50 µM (inactive) | 23.5 µM (inactive) | 8.24 µM (inactive) | 12.9 µM (inactive) | 12.4 µM (inactive) | 27.2 µM (inactive) | 3.02 µM (inactive) | 20.7 µM (inactive) | 22 µM (inactive) | 7.85 µM (inactive) | – | 34.5 µM (inactive) | – | – | 16.6 µM (inactive) | 11.4 µM (inactive) | –
5 | COc1ccc2c3c1OC1C(OC)(OC)CC4(C=C2)CN(C)CCC314 (configuration not stated) | > 100 µM (inactive) | > 100 µM (inactive) | > 100 µM (inactive) | > 100 µM (inactive) | > 100 µM (inactive) | – | 28.6 µM (inactive) | > 100 µM (inactive) | – | > 100 µM (inactive) | > 100 µM (inactive) | > 100 µM (inactive) | > 100 µM (inactive) | > 100 µM (inactive) | – | > 100 µM (inactive) | > 100 µM (inactive) | > 100 µM (inactive) | > 100 µM (inactive) | –
6 | Cc1nn2c(C(=O)N/N=C/c3ccccc3O)c(C)nc2s1 | 49.7 µM (inactive) | > 100 µM (inactive) | > 100 µM (inactive) | > 100 µM (inactive) | 51.6 µM (inactive) | 53 µM (inactive) | 61.5 µM (inactive) | > 100 µM (inactive) | > 100 µM (inactive) | 59.2 µM (inactive) | > 100 µM (inactive) | 56.1 µM (inactive) | > 100 µM (inactive) | > 100 µM (inactive) | > 100 µM (inactive) | 85.9 µM (inactive) | > 100 µM (inactive) | > 100 µM (inactive) | 89.3 µM (inactive) | –
7 | Cn1cnc(C(N)=[Se])c1N | 0.183 µM (active) | 1.92 µM (inactive) | 3.26 µM (inactive) | 1.13 µM (inactive) | 3.69 µM (inactive) | 4.44 µM (inactive) | 16.4 µM (inactive) | 2.05 µM (inactive) | 2.19 µM (inactive) | 2.09 µM (inactive) | 1.6 µM (inactive) | 2.6 µM (inactive) | 3.56 µM (inactive) | 2.33 µM (inactive) | 3.74 µM (inactive) | 0.244 µM (active) | 2.64 µM (inactive) | 2 µM (inactive) | 3.11 µM (inactive) | –
8 | COc1cccc(-c2nc(-c3cnccn3)n(C3OC(CO)C(O)C3O)n2)c1 (configuration not stated) | > 100 µM (inactive) | > 100 µM (inactive) | > 100 µM (inactive) | > 100 µM (inactive) | > 100 µM (inactive) | > 100 µM (inactive) | – | > 100 µM (inactive) | > 100 µM (inactive) | > 100 µM (inactive) | – | – | > 100 µM (inactive) | > 100 µM (inactive) | – | > 100 µM (inactive) | > 100 µM (inactive) | > 100 µM (inactive) | – | > 100 µM (inactive)
9 | NNC(=O)c1cc(=O)[nH][nH]1 | > 100 µM (inactive) | > 100 µM (inactive) | – | > 100 µM (inactive) | > 100 µM (inactive) | > 100 µM (inactive) | – | > 100 µM (inactive) | > 100 µM (inactive) | > 100 µM (inactive) | > 100 µM (inactive) | > 100 µM (inactive) | > 100 µM (inactive) | > 100 µM (inactive) | > 100 µM (inactive) | > 100 µM (inactive) | > 100 µM (inactive) | > 100 µM (inactive) | > 100 µM (inactive) | –
10 | CN1CCN(/C(N)=C(\C#N)C(=O)Nc2ccc(Cl)cc2)CC1 | 74.6 µM (inactive) | > 100 µM (inactive) | 47.9 µM (inactive) | > 100 µM (inactive) | 41.6 µM (inactive) | 30.6 µM (inactive) | 40.4 µM (inactive) | 78.2 µM (inactive) | – | 18.7 µM (inactive) | – | > 100 µM (inactive) | > 100 µM (inactive) | 59 µM (inactive) | – | 75.7 µM (inactive) | – | 23 µM (inactive) | > 100 µM (inactive) | 35.1 µM (inactive)
11 | COc1ccc(C(SC2C(O)C(CO)OC2n2ccc(=O)[nH]c2=O)(c2ccccc2)c2ccc(OC)cc2)cc1 (configuration not stated) | 10.9 µM (inactive) | 19.1 µM (inactive) | 16.9 µM (inactive) | 16.6 µM (inactive) | 14.7 µM (inactive) | 11.3 µM (inactive) | – | 17.1 µM (inactive) | 14.7 µM (inactive) | 17.7 µM (inactive) | 18.1 µM (inactive) | 29 µM (inactive) | 18.4 µM (inactive) | 15.8 µM (inactive) | 20.9 µM (inactive) | 7.57 µM (inactive) | 25.4 µM (inactive) | 15.9 µM (inactive) | 16.6 µM (inactive) | –
12 | NC1=C(Cl)C(=O)c2c(O)ccc(O)c2C1=O | 1.91 µM (inactive) | 3.82 µM (inactive) | 1.79 µM (inactive) | 1.93 µM (inactive) | 2.47 µM (inactive) | 1.85 µM (inactive) | 14.1 µM (inactive) | 12 µM (inactive) | 14.6 µM (inactive) | 1.69 µM (inactive) | 7.45 µM (inactive) | 4.88 µM (inactive) | 5.85 µM (inactive) | 2.92 µM (inactive) | 8.3 µM (inactive) | 2.1 µM (inactive) | 15.2 µM (inactive) | 1.59 µM (inactive) | 11.6 µM (inactive) | –
13 | O=S(=O)(O)c1cc(/N=N/c2c(O)ccc3ccccc23)c2c(S(=O)(=O)O)cccc2c1 | > 100 µM (inactive) | > 100 µM (inactive) | – | > 100 µM (inactive) | > 100 µM (inactive) | > 100 µM (inactive) | – | > 100 µM (inactive) | > 100 µM (inactive) | > 100 µM (inactive) | > 100 µM (inactive) | > 100 µM (inactive) | > 100 µM (inactive) | > 100 µM (inactive) | > 100 µM (inactive) | > 100 µM (inactive) | > 100 µM (inactive) | > 100 µM (inactive) | > 100 µM (inactive) | > 100 µM (inactive)
14 | CNC(=O)NS(=O)(=O)c1ccc(C)cc1.NS(=O)O | > 100 µM (inactive) | > 100 µM (inactive) | > 100 µM (inactive) | > 100 µM (inactive) | > 100 µM (inactive) | > 100 µM (inactive) | – | – | > 100 µM (inactive) | > 100 µM (inactive) | > 100 µM (inactive) | > 100 µM (inactive) | > 100 µM (inactive) | > 100 µM (inactive) | > 100 µM (inactive) | > 100 µM (inactive) | > 100 µM (inactive) | > 100 µM (inactive) | – | –
15 | CCN(CC)CCCNc1ccc2nc(C)n3c4ccc(O)cc4c(=O)c1c23 | 0.838 µM (active) | 1.95 µM (inactive) | 1.14 µM (inactive) | 12.1 µM (inactive) | 0.713 µM (active) | 8.61 µM (inactive) | 11.9 µM (inactive) | 11.4 µM (inactive) | 0.485 µM (active) | 5.18 µM (inactive) | 3.89 µM (inactive) | 3.01 µM (inactive) | 6.22 µM (inactive) | 3.61 µM (inactive) | 7.08 µM (inactive) | 5.16 µM (inactive) | 7.16 µM (inactive) | 10 µM (inactive) | 6.46 µM (inactive) | –
16 | COc1cc(-c2oc3c(OC)c(OC)cc(O)c3c(=O)c2OC)ccc1O [TERNATIN] | – | 20.7 µM (inactive) | – | 5.01 µM (inactive) | 5.04 µM (inactive) and 8.69 µM (inactive) | – | – | 11.4 µM (inactive) | – | > 100 µM (inactive) | 6.18 µM (inactive) and 3.87 µM (inactive) | – | 34.6 µM (inactive) | – | 3.93 µM (inactive) | – | 4.84 µM (inactive) and 8.69 µM (inactive) | 8.39 µM (inactive) and 4.7 µM (inactive) | – | –
